In one experiment the target is T1, STAT3 (Homo sapiens, UniProt P40763).
T1 construct: endogenous in cells; host or cells: MOLM-16 (acute leukemia cells)
Description: Fluorescent immunoblotting of STAT3 protein in MOLM-16 cells (estimated DC50). It counts as cell-based. As to conditions: MOLM-16, 4 h. The method, then:
In vitro cultured cells or xenograft tumors were lysed 1×Cell Lysis Buffer (Cell Signaling Technology, #9803), resolved by SDS-PAGE NuPAGE gel (Thermo Fisher Scientific), and transferred to a PVDF membrane (Bio Rad). For chemiluminescence immunoblotting, membranes were blocked for 1 h using 5% Blotting-Grade Blocker (#1706404, Bio Rad) in 1×Tris-buffered saline with Tween 20 (TBST, Pierce). Antibodies used were: rabbit mAbs for STAT3 (Cell Signaling Technology, #4368, #12640) and p-STAT3 (Y705) (Cell Signaling Technology, #9245, #52075). HRP conjugated goat anti-rabbit IgG (H+L) (#A27036) secondary antibodies was from Thermo Fisher Scientific. GAPDH (Santa Cruz Technology, sc-47724HRP) and actin (Santa Cruz Technology, sc-8432HRP, sc-47778HRP) were loading controls. For fluorescent immunoblotting, membranes were blocked using Odyssey TBS Blocker Buffer (LI-COR). IRDye 680RD and 800CW Dye-labeled secondary antibodies (LI-COR) were used. The washed membranes were scanned using Odyssey CLx imager (LI-COR). The intensity of Western blot signaling was quantitated using the Odyssey software or Image Studio V5.2 (LI-COR).

For a further experiment, the system named is MOLM-16 cells. Put plainly: Cell growth inhibition, 4-day proliferation assay (CellTiter-Glo). It counts as cell-based. To be noted: MOLM16, 96 h; MOLM-16, 4 days. The method, then:
The effect of representative Compounds of the Disclosure on cell viability was determined in a 4-day proliferation assay. Cells were maintained in the appropriate culture medium at 37° C. and an atmosphere of 5% CO2. All the cell lines were used within three months of thawing fresh vials. Cells were seeded in 384-well white plates (Corning Costar) at a density of 2,000 cells/well in 25 μl of culture medium. Compounds were serially diluted in the appropriate medium, and 25 μl of the diluted compounds were added to the cells. After the addition of compounds, the cells were incubated at 37° C. in an atmosphere of 5% CO2 for 4 days. Cell viability was determined using the CellTiter-Glo® Luminescent Cell Viability Assay Kit (Promega, Madison, WI) according to the manufacturers' instructions. Essentially, 50 μl of CellTiter-Glo® Reagent was added to each well, and then the plates were incubated at room temperature for 20 minutes. The luminescent signal was measured using a Tecan multimode microplate reader (Tecan, Morrisville, NC). The readings were normalized to the DMSO-treated cells and the IC50 was calculated by nonlinear regression (four parameters sigmoid fitted with variable slope, least squares fit, and no constraint) analysis using the GraphPad Prism software.
On the technique in general: ATP-based viability assays read luminescence as a measure of living cells.

SMILES strings stand for the structures.

T1 sequence (P40763 whole entry): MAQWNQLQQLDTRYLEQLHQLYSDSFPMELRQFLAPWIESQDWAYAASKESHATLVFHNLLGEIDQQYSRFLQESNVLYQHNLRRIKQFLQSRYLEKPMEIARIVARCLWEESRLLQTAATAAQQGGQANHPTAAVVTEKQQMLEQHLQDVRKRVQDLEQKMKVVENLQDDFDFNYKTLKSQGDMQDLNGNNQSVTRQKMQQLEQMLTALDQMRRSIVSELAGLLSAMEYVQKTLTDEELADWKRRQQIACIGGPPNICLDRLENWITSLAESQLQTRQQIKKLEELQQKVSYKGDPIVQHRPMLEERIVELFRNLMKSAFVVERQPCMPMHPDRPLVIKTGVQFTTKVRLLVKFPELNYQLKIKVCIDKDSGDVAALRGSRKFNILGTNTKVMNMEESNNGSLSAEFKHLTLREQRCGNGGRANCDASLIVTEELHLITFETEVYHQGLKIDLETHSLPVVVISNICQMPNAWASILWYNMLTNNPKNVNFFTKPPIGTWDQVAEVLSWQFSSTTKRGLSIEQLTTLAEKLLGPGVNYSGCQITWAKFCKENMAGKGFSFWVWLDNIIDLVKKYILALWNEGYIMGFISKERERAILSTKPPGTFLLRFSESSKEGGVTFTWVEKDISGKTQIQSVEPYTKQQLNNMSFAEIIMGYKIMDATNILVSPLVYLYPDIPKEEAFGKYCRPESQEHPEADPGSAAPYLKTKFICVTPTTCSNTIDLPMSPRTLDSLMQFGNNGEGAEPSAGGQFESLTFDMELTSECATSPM

As a reminder, the IC50 is the midpoint of a concentration-inhibition curve. For `NC(=O)CC[C@H](NC(=O)[C@@H]1CC[C@@H]2CCN(C(=O)CCCCCC#Cc3cccc4c3CN(C3CCC(=O)NC3=O)C4=O)C[C@H](NC(=O)c3cc4cc(C(F)(F)P(=O)(O)O)ccc4s3)C(=O)N21)c1nc(Cc2ccccc2)cs1` (stereo partly drawn) [Cpd. No. 3, ((2-(((5S,8S,10aR)-8-(((S)-4-amino-1-(4-benzylthiazol-2-yl)-4-oxobutyl)carbamoyl)-3-(8-(2-(2,6-dioxopiperidin-3-yl)-1-oxoisoindolin-4-yl)oct-7-ynoyl)-6-oxodecahydropyrrolo[1,2-a][1,5]diazocin-5-yl)carbamoyl)benzo[b]thiophen-5-yl)difluoromethyl)phosphonic acid], the DC50 at STAT3 is 100 nM. Moreover, the midpoint of inhibition in the experiment on MOLM-16 cells, the IC50, lay at 170 nM.
In the same order, the values of `NC(=O)CC[C@H](NC(=O)[C@@H]1CC[C@@H]2CCN(C(=O)CCCCCC#Cc3cccc4c3CN(C3CCC(=O)NC3=O)C4=O)C[C@H](NC(=O)c3cc4cc(C(F)(F)P(=O)(O)O)ccc4s3)C(=O)N21)c1nc(-c2ccccc2)cs1` (stereo partly drawn) [Cpd. No. 4, ((2-(((5S,8S,10aR)-8-(((S)-4-amino-4-oxo-1-(4-phenylthiazol-2-yl)butyl)carbamoyl)-3-(8-(2-(2,6-dioxopiperidin-3-yl)-1-oxoisoindolin-4-yl)oct-7-ynoyl)-6-oxodecahydropyrrolo[1,2-a][1,5]diazocin-5-yl)carbamoyl)benzo[b]thiophen-5-yl)difluoromethyl)phosphonic acid] are 200 nM and 140 nM.
As to `NC(=O)CC[C@H](NC(=O)[C@@H]1CC[C@@H]2CCN(C(=O)CCCCCC#Cc3cccc4c3CN(C3CCC(=O)NC3=O)C4=O)C[C@H](NC(=O)c3cc4cc(C(F)(F)P(=O)(O)O)ccc4s3)C(=O)N21)c1ncc(Cc2ccccc2)s1` (stereo partly drawn) [Cpd. No. 5, ((2-(((5S,8S,10aR)-8-(((S)-4-amino-1-(5-benzylthiazol-2-yl)-4-oxobutyl)carbamoyl)-3-(8-(2-(2,6-dioxopiperidin-3-yl)-1-oxoisoindolin-4-yl)oct-7-ynoyl)-6-oxodecahydropyrrolo[1,2-a][1,5]diazocin-5-yl)carbamoyl)benzo[b]thiophen-5-yl)difluoromethyl)phosphonic acid], the DC50 at STAT3 was 100 nM. Further, the midpoint of inhibition with MOLM-16 cells, the IC50, lay at 49 nM.
On the same counts, the results for `NC(=O)CC[C@H](NC(=O)[C@@H]1CC[C@@H]2CCN(C(=O)CCCCCC#Cc3cccc4c3CN(C3CCC(=O)NC3=O)C4=O)C[C@H](NC(=O)c3cc4cc(C(F)(F)P(=O)(O)O)ccc4s3)C(=O)N21)c1nc2c(s1)Cc1ccccc1-2` (stereo partly drawn) [Cpd. No. 6, ((2-(((5S,8S,10aR)-8-(((S)-4-amino-1-(8H-indeno[1,2-d]thiazol-2-yl)-4-oxobutyl)carbamoyl)-3-(8-(2-(2,6-dioxopiperidin-3-yl)-1-oxoisoindolin-4-yl)oct-7-ynoyl)-6-oxodecahydropyrrolo[1,2-a][1,5]diazocin-5-yl)carbamoyl)benzo[b]thiophen-5-yl)difluoromethyl)phosphonic acid] are 100 nM and 64 nM.
On to `NC(=O)CC[C@H](NC(=O)[C@@H]1CC[C@@H]2CCN(C(=O)CCCCCC#Cc3cccc4c3CN(C3CCC(=O)NC3=O)C4=O)C[C@H](NC(=O)c3cc4cc(C(F)(F)P(=O)(O)O)ccc4s3)C(=O)N21)c1ncc(-c2ccc(Cl)cc2)s1` (stereo partly drawn) [Cpd. No. 7, ((2-(((5S,8S,10aR)-8-(((S)-4-amino-1-(5-(4-chlorophenyl)thiazol-2-yl)-4-oxobutyl)carbamoyl)-3-(8-(2-(2,6-dioxopiperidin-3-yl)-1-oxoisoindolin-4-yl)oct-7-ynoyl)-6-oxodecahydropyrrolo[1,2-a][1,5]diazocin-5-yl)carbamoyl)benzo[b]thiophen-5-yl)difluoromethyl)phosphonic acid], for which the DC50 at STAT3 was 50 nM.
Consider `NC(=O)OC[C@H](NC(=O)[C@@H]1CC[C@@H]2CCN(C(=O)CCCCCC#Cc3cccc4c3CN(C3CCC(=O)NC3=O)C4=O)C[C@H](NC(=O)c3cc4cc(C(F)(F)P(=O)(O)O)ccc4s3)C(=O)N21)c1ncc(-c2ccccc2)s1` (stereo partly drawn) [Cpd. No. 8, ((2-(((5S,8S,10aR)-8-(((S)-2-(carbamoyloxy)-1-(5-phenylthiazol-2-yl)ethyl)carbamoyl)-3-(8-(2-(2,6-dioxopiperidin-3-yl)-1-oxoisoindolin-4-yl)oct-7-ynoyl)-6-oxodecahydropyrrolo[1,2-a][1,5]diazocin-5-yl)carbamoyl)benzo[b]thiophen-5-yl)difluoromethyl)phosphonic acid], for which the DC50 at STAT3 is 100 nM. Further, half-maximal inhibition with MOLM-16 cells (IC50) was put at 13 nM.
With `NC(=O)CC[C@H](NC(=O)[C@@H]1CC[C@@H]2CCN(C(=O)CCCCCC#Cc3cccc4c3CN(C3CCC(=O)NC3=O)C4=O)C[C@H](NC(=O)c3cc4cc(C(F)(F)P(=O)(O)O)ccc4s3)C(=O)N21)c1nc(-c2ccc(F)c(F)c2)cs1` (stereo partly drawn) [Cpd. No. 11, ((2-(((5S,8S,10aR)-8-(((S)-4-amino-1-(4-(3,4-difluorophenyl)thiazol-2-yl)-4-oxobutyl)carbamoyl)-3-(8-(2-(2,6-dioxopiperidin-3-yl)-1-oxoisoindolin-4-yl)oct-7-ynoyl)-6-oxodecahydropyrrolo[1,2-a][1,5]diazocin-5-yl)carbamoyl)benzo[b]thiophen-5-yl)difluoromethyl)phosphonic acid], the DC50 at STAT3 is 100 nM.
`NC(=O)CC[C@H](NC(=O)[C@@H]1CC[C@@H]2CCN(C(=O)CCCCCC#Cc3cccc4c3CN(C3CCC(=O)NC3=O)C4=O)C[C@H](NC(=O)c3cc4cc(C(F)(F)P(=O)(O)O)ccc4s3)C(=O)N21)c1nc(-c2ccc(F)cc2)cs1` (stereo partly drawn) [Cpd. No. 12, ((2-(((5S,8S,10aR)-8-(((S)-4-amino-1-(4-(4-fluorophenyl)thiazol-2-yl)-4-oxobutyl)carbamoyl)-3-(8-(2-(2,6-dioxopiperidin-3-yl)-1-oxoisoindolin-4-yl)oct-7-ynoyl)-6-oxodecahydropyrrolo[1,2-a][1,5]diazocin-5-yl)carbamoyl)benzo[b]thiophen-5-yl)difluoromethyl)phosphonic acid]: on STAT3, the DC50 is 100 nM.
Take `NC(=O)CC[C@H](NC(=O)[C@@H]1CC[C@@H]2CCN(C(=O)CCCCCC#Cc3cccc4c3CN(C3CCC(=O)NC3=O)C4=O)C[C@H](NC(=O)c3cc4cc(C(F)(F)P(=O)(O)O)ccc4s3)C(=O)N21)c1nc(-c2ccc(Cl)cc2)cs1` (stereo partly drawn) [Cpd. No. 13, ((2-(((5S,8S,10aR)-8-(((S)-4-amino-1-(4-(4-chlorophenyl)thiazol-2-yl)-4-oxobutyl)carbamoyl)-3-(8-(2-(2,6-dioxopiperidin-3-yl)-1-oxoisoindolin-4-yl)oct-7-ynoyl)-6-oxodecahydropyrrolo[1,2-a][1,5]diazocin-5-yl)carbamoyl)benzo[b]thiophen-5-yl)difluoromethyl)phosphonic acid]: at STAT3, the DC50 is 100 nM.
On the same count and under the same terms, the figure for `CC(C)(C)c1cnc([C@H](CCC(N)=O)NC(=O)[C@@H]2CC[C@@H]3CCN(C(=O)CCCCCC#Cc4cccc5c4CN(C4CCC(=O)NC4=O)C5=O)C[C@H](NC(=O)c4cc5cc(C(F)(F)P(=O)(O)O)ccc5s4)C(=O)N32)s1` (stereo partly drawn) [Cpd. No. 15, ((2-(((5S,8S,10aR)-8-(((S)-4-amino-1-(5-(tert-butyl)thiazol-2-yl)-4-oxobutyl)carbamoyl)-3-(8-(2-(2,6-dioxopiperidin-3-yl)-1-oxoisoindolin-4-yl)oct-7-ynoyl)-6-oxodecahydropyrrolo[1,2-a][1,5]diazocin-5-yl)carbamoyl)benzo[b]thiophen-5-yl)difluoromethyl)phosphonic acid] is 500 nM; for `CC(C)(C)c1ccc(-c2cnc([C@H](CCC(N)=O)NC(=O)[C@@H]3CC[C@@H]4CCN(C(=O)CCCCCC#Cc5cccc6c5CN(C5CCC(=O)NC5=O)C6=O)C[C@H](NC(=O)c5cc6cc(C(F)(F)P(=O)(O)O)ccc6s5)C(=O)N43)s2)cc1` (stereo partly drawn) [Cpd. No. 17, ((2-(((5S,8S,10aR)-8-(((S)-4-amino-1-(5-(4-(tert-butyl)phenyl)thiazol-2-yl)-4-oxobutyl)carbamoyl)-3-(8-(2-(2,6-dioxopiperidin-3-yl)-1-oxoisoindolin-4-yl)oct-7-ynoyl)-6-oxodecahydropyrrolo[1,2-a][1,5]diazocin-5-yl)carbamoyl)benzo[b]thiophen-5-yl)difluoromethyl)phosphonic acid] it is 200 nM.

Source of the values: patent publication US12522623B2, “Small molecule STAT protein degraders” (THE REGENTS OF THE UNIVERSITY OF MICHIGAN, priority 2020, dated 2026).
